Data on two compounds can be found in US8476284B2, “Inhibitors of Bruton's tyrosine kinase” (Pharmacyclics, Inc., priority 2006, dated 2013).

One experiment addresses Btk (Homo sapiens (Human), UniProt Q06187). Put plainly: Btk acellular kinase assay (TR-FRET).
For the next experiment, the system named is DHL-6 cells. Put plainly: DHL-6 cell growth (Alamar Blue assay). The class given is cell-based. To be noted: 3E4 cells/well, complete media. For orientation: Resazurin is reduced to fluorescent resorufin, in cell work by metabolically active cells.

Sequence of Btk (Q06187 whole entry): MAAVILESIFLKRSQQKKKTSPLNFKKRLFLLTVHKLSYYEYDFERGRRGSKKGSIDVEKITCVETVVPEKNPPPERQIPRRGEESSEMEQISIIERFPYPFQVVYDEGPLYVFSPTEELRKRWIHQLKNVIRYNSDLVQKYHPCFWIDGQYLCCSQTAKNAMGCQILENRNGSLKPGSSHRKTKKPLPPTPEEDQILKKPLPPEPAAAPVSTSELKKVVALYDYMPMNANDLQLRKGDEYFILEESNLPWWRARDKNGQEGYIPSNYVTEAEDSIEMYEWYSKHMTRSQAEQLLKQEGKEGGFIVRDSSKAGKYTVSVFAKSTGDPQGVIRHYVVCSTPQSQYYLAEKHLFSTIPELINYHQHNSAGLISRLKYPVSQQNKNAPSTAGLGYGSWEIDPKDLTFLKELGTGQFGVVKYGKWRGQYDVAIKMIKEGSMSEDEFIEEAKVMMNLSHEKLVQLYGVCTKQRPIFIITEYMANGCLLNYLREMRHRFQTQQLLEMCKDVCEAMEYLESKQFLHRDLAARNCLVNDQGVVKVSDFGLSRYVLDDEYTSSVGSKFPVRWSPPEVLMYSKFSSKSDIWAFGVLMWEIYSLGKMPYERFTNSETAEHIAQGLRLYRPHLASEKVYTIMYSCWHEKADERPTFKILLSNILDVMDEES

On to `C/C=C/C(=O)N1CCCC(n2nc(-c3ccc(Oc4ccccc4)cc3)c3c(N)ncnc32)C1` (centres unmarked) [Compound 5, (E)-1-(3-(4-amino-3-(4-phenoxyphenyl)-1H-pyrazolo[3,4-d]pyrimidin-1-yl)piperidin-1-yl)but-2-en-1-one], for which, on Btk, the “fold less potent than 4” value came to 28 fold.

Consider `CN(C)C/C=C/C(=O)N1CCCC(n2nc(-c3ccc(Oc4ccccc4)cc3)c3c(N)ncnc32)C1` (centres unmarked) [Compound 15, (E)-1-(3-(4-amino-3-(4-phenoxyphenyl)-1H-pyrazolo[3,4-d]pyrimidin-1-yl)piperidin-1-yl)-4-(dimethylamino)but-2-en-1-one], for which the “growth of DHL-6 cells” value in the experiment with DHL-6 cells was “inhibit growth”.
